Results on 20 compounds are retold here after US12599582B2, “Pyrrole compounds” (ALIGOS THERAPEUTICS, INC., priority 2019, dated 2026).

pEC50: −log10 of the molar value. Read-outs that look alike come from different tables or passages of the source.

The test deals with HBV. The test is described as follows: HBV-DNA Antiviral Assay Using HepG2.2.15 Cells (extracellular HBV DNA by qPCR). The conditions noted are these: HBV DNA inhibition, HepG2.2.15 cells, extracellular HBV DNA by qPCR, read-out: EC50. It is filed as cell-based, hepatitis B virus (HBV). The protocol: The following assay procedure describes the HBV antiviral assay. This assay uses HepG2.2.15 cells, which have been transfected with HBV genome, and extracellular HBV DNA quantification as endpoint. Cell viability is assessed in parallel by measuring the intracellular ATP content using the CellTiter-Glo® reagent from Promega.
On day 0, HepG2.2.15 cells were seeded in 96-well plates at a density of 6.0×10^4 cells/well (0.1 mL/well). The cells were incubated at 37° C. and 5% CO2.
On day 1, the test articles were diluted and added to cell culture wells (8 concentrations, 4-fold dilution, in duplicate). GLS4, Tenofovir and Sorafenib were used as reference compounds. 100 μL of culture medium containing the compounds was added to the plate, and the final total volume per well was 200 μL. The final concentration of DMSO in the culture medium was 0.5%. The plate map of compound treatment is shown below. The cells were cultured at 37° C. and 5% CO2 for 3 days.
On day 4, the plates were refreshed with culture media with compounds.
On day 7, cell viability was assessed using the CellTiter-Glo®, and the cell culture supernatants were collected for determination of HBV DNA by qPCR.
Extracellular DNA was isolated with QIAamp 96 DNA Blood Kit per the manufacturer's manual. HBV DNA was then quantified by qPCR with HBV specific primers and probes as specified in Table 1 using the FastStart Universal MasterMix from Roche on an ABI-7900HT. The PCR cycle program consisted of 95° C. for 10 min, followed by 40 cycles at 95° C. for 15 sec and 60° C. for 1 min.
A DNA standard was prepared by dilution of the pAAV2 HBV1.3 plasmid with concentrations ranging from 10 to 1×10^7 copies/uL and used to generate a standard curve by plotting Ct value vs. the concentration of the HBV plasmid DNA standard. The quantity of HBV DNA in each sample was determined by interpolating from the standard curve.
Cell viability was calculated as follows: % Cell viability=(luminescence value of test sample−average luminescence value of blank)/(average luminescence value of 0.5% DMSO control−average luminescence of blank)×100%. HBV DNA inhibition was calculated as follows: 100−(HBV DNA copy number of test sample−HBV DNA copy number of ETV)/HBV DNA copy number of 0.5% DMSO control−HBV DNA copy number of ETV)×100%. The CC50, EC50 and EC90 values were determined by dose-response curves fitted by GraphPad Prism using “log (agonist) vs. response—Variable slope”.

As for `C=CC1(NC(=O)C(=O)c2c(C)c(C(=O)Nc3ccc(F)c(C#N)c3)n(C)c2C)CC(F)(F)C1` [Compound 53, N-(3-cyano-4-fluoro-phenyl)-4-[2-[(3,3-difluoro-1-vinyl-cyclobutyl)amino]-2-oxo-acetyl]-1,3,5-trimethyl-pyrrole-2-carboxamide], the pEC50 (Hepatitis B virus) was 8.00 to 9.00. For the compound `C#CC1(NC(=O)C(=O)c2c(F)c(C(=O)Nc3ccc(F)c(C#N)c3)n(C)c2C)COC1` [Compound 55, N-(3-cyano-4-fluoro-phenyl)-4-[2-[(3-ethynyloxetan-3-yl)amino]-2-oxo-acetyl]-3-fluoro-1,5-dimethyl-pyrrole-2-carboxamide], the pEC50 (Hepatitis B virus) is over 9.00. As for `C#CC1(NC(=O)C(=O)c2c(F)c(C(=O)Nc3ccc(F)c(C#N)c3)n(C)c2C)CC(F)(F)C1` [Compound 56, N-(3-cyano-4-fluoro-phenyl)-4-[2-[(1-ethynyl-3,3-difluoro-cyclobutyl)amino]-2-oxo-acetyl]-3-fluoro-1,5-dimethyl-pyrrole-2-carboxamide], the pEC50 (Hepatitis B virus) is over 9.00.

In the case of `C#C[C@H](NC(=O)C(=O)c1c(C)c(C(=O)Nc2ccc(F)c(C#N)c2)n(C)c1C)C1COC1` [Compound 57], the pEC50 was over 9.00. `C#C[C@@H](NC(=O)C(=O)c1c(C)c(C(=O)Nc2ccc(F)c(C#N)c2)n(C)c1C)C1COC1` [Compound 58, N-(3-cyano-4-fluoro-phenyl)-1,3,5-trimethyl-4-[2-oxo-2-[[(1S)-1-(oxetan-3-yl)prop-2-ynyl]amino]acetyl]pyrrole-2-carboxamide]: the pEC50 (Hepatitis B virus) is 8.00 to 9.00. For the compound `C#C[C@@H](CCO)NC(=O)C(=O)c1c(C)c(C(=O)Nc2ccc(F)c(C#N)c2)n(C)c1C` [Compound 61a, N-(3-cyano-4-fluoro-phenyl)-1,3,5-trimethyl-4-[2-oxo-2-[[(1R)-1-(2-hydroxyethyl)prop-2-ynyl]amino]acetyl]pyrrole-2-carboxamide], the pEC50 (Hepatitis B virus) was 8.00 to 9.00.

On to `C#C[C@H](CCO)NC(=O)C(=O)c1c(C)c(C(=O)Nc2ccc(F)c(C#N)c2)n(C)c1C` [Compound 61b, N-(3-cyano-4-fluoro-phenyl)-1,3,5-trimethyl-4-[2-oxo-2-[[(1S)-1-(2-hydroxyethyl)prop-2-ynyl]amino]acetyl]pyrrole-2-carboxamide], for which, where the note is “Hepatitis B virus”, the pEC50 was 8.00 to 9.00. For `Cc1c(C(=O)C(=O)NC2(C#CC(F)(F)F)CC(O)C2)c(C)n(C)c1C(=O)Nc1ccc(F)c(C#N)c1` (centres unmarked) [Compound 62, N-(3-cyano-4-fluoro-phenyl)-4-[2-[[3-hydroxy-1-(3,3,3-trifluoroprop-1-ynyl)cyclobutyl]amino]-2-oxo-acetyl]-1,3,5-trimethyl-pyrrole-2-carboxamide], the pEC50 (Hepatitis B virus) was 6.00 to 7.00. Still for that read-out and setting: in the case of `C#C[C@](CO)(NC(=O)C(=O)c1c(C)c(C(=O)Nc2ccc(F)c(C#N)c2)n(C)c1C)C1CC1` [Compound 63a, N-(3-cyano-4-fluoro-phenyl)-1,3,5-trimethyl-4-[2-oxo-2-[[(1R)-1-cyclopropyl-1-(hydroxymethyl)prop-2-ynyl]amino]acetyl]pyrrole-2-carboxamide] it was 8.00 to 9.00; in that of `C#C[C@@](CO)(NC(=O)C(=O)c1c(C)c(C(=O)Nc2ccc(F)c(C#N)c2)n(C)c1C)C1CC1` [Compound 63b, N-(3-cyano-4-fluoro-phenyl)-1,3,5-trimethyl-4-[2-oxo-2-[[(1S)-1-cyclopropyl-1-(hydroxymethyl)prop-2-ynyl]amino]acetyl]pyrrole-2-carboxamide], 8.00 to 9.00. `C#C[C@](C)(CO)NC(=O)C(=O)c1c(C)c(C(=O)Nc2ccc(F)c(C#N)c2)n(C)c1C` [Compound 64a, N-(3-cyano-4-fluoro-phenyl)-1,3,5-trimethyl-4-[2-oxo-2-[[(1R)-1-(hydroxymethyl)-1-methyl-prop-2-ynyl]amino]acetyl]pyrrole-2-carboxamide]: the pEC50 (Hepatitis B virus) was 8.00 to 9.00. `C#C[C@@](C)(CO)NC(=O)C(=O)c1c(C)c(C(=O)Nc2ccc(F)c(C#N)c2)n(C)c1C` [Compound 64b, N-(3-cyano-4-fluoro-phenyl)-1,3,5-trimethyl-4-[2-oxo-2-[[(1S)-1-(hydroxymethyl)-1-methyl-prop-2-ynyl]amino]acetyl]pyrrole-2-carboxamide]: the pEC50 (Hepatitis B virus) was 8.00 to 9.00. Turning to `C#C[C@](CO)(NC(=O)C(=O)c1c(C)c(C(=O)Nc2ccc(F)c(C(F)(F)F)c2)n(C)c1C)C1CC1` [Compound 65a, N-[4-fluoro-3-(trifluoromethyl)phenyl]-1,3,5-trimethyl-4-[2-oxo-2-[[(1R)-1-cyclopropyl-1-(hydroxymethyl)prop-2-ynyl]amino]acetyl]pyrrole-2-carboxamide], where the note is “Hepatitis B virus”, the pEC50 is over 9.00. `C#C[C@@](CO)(NC(=O)C(=O)c1c(C)c(C(=O)Nc2ccc(F)c(C(F)(F)F)c2)n(C)c1C)C1CC1` [Compound 65b, N-[4-fluoro-3-(trifluoromethyl)phenyl]-1,3,5-trimethyl-4-[2-oxo-2-[[(1S)-1-cyclopropyl-1-(hydroxymethyl)prop-2-ynyl]amino]acetyl]pyrrole-2-carboxamide]: the pEC50 (Hepatitis B virus) is 8.00 to 9.00.

Take `C#C[C@](C)(CO)NC(=O)C(=O)c1c(C)c(C(=O)Nc2ccc(F)c(C(F)(F)F)c2)n(C)c1C` [Compound 66a, (R)—N-(4-fluoro-3-(trifluoromethyl)phenyl)-4-(2-((1-hydroxy-2-methylbut-3-yn-2-yl)amino)-2-oxoacetyl)-1,3,5-trimethyl-1H-pyrrole-2-carboxamide]: the negative logarithm of the EC50 (pEC50) (Hepatitis B virus) is over 9.00. `C#C[C@@](C)(CO)NC(=O)C(=O)c1c(C)c(C(=O)Nc2ccc(F)c(C(F)(F)F)c2)n(C)c1C` [Compound 66b, (S)—N-(4-fluoro-3-(trifluoromethyl)phenyl)-4-(2-((1-hydroxy-2-methylbut-3-yn-2-yl)amino)-2-oxoacetyl)-1,3,5-trimethyl-1H-pyrrole-2-carboxamide]: for the setting “Hepatitis B virus”, the pEC50 was 8.00 to 9.00. Turning to `C#CC1(NC(=O)C(=O)c2c(C)c(C(=O)Nc3ccnc(F)c3Br)n(C)c2C)COC1` [Compound 67, N-(3-bromo-2-fluoro-4-pyridyl)-4-[2-[(3-ethynyloxetan-3-yl)amino]-2-oxo-acetyl]-1,3,5-trimethyl-pyrrole-2-carboxamide], the pEC50 (Hepatitis B virus) was 7.00 to 8.00.

Take `C#CC1(NC(=O)C(=O)c2c(C)c(C(=O)Nc3ccnc(F)c3Br)n(C)c2C)CC(F)(F)C1` [Compound 68, N-(3-bromo-2-fluoro-4-pyridyl)-4-[2-[(1-ethynyl-3,3-difluoro-cyclobutyl)amino]-2-oxo-acetyl]-1,3,5-trimethyl-pyrrole-2-carboxamide]: where the note is “Hepatitis B virus”, the pEC50 was over 9.00. Turning to `C=C[C@](C)(CO)NC(=O)C(=O)c1c(C)c(C(=O)Nc2ccc(F)c(C(F)(F)F)c2)n(C)c1C` [Compound 69a, N-[4-fluoro-3-(trifluoromethyl)phenyl]-1,3,5-trimethyl-4-[2-oxo-2-[[(1R)-1-(hydroxymethyl)-1-methyl-allyl]amino]acetyl]pyrrole-2-carboxamide], under “Hepatitis B virus”, the pEC50 is 8.00 to 9.00.

As for `C=C[C@@](C)(CO)NC(=O)C(=O)c1c(C)c(C(=O)Nc2ccc(F)c(C(F)(F)F)c2)n(C)c1C` [Compound 69b, N-[4-fluoro-3-(trifluoromethyl)phenyl]-1,3,5-trimethyl-4-[2-oxo-2-[[(1S)-1-(hydroxymethyl)-1-methyl-allyl]amino]acetyl]pyrrole-2-carboxamide], the pEC50 (Hepatitis B virus) was 8.00 to 9.00.
